Test results from patent US12180192B2, “Modulators of THR-β and methods of use thereof” (ALIGOS THERAPEUTICS, INC., priority 2019, dated 2024).

Columns and labels:
[1] = target: T1, human thyroid receptor beta ligand-binding domain (LBD) (Homo sapiens, UniProt P10828); assay: TR-FRET thyroid receptor beta coactivator assay (THR biochemical assay, Assay 1); conditions: for EC50: THR-beta, TR-FRET coactivator assay, read-out: Activity category Assay 1 (EC50, THR-beta agonist); for Emax: Table 5, Assay 1, THRβ, read-out: Activity category Assay 1 THRβ (Emax)
T1 construct: purchased Invitrogen
T1 sequence (P10828 217-461 limits assumed): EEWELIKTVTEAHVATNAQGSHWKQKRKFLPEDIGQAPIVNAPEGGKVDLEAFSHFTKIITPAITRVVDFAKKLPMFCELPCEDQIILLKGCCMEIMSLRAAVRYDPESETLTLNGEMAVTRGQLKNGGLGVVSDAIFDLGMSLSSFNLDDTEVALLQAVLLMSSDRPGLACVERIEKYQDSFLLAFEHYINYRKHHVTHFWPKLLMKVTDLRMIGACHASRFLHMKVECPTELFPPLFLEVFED
Method in brief: (§1)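 GST-tagged human TRβ or TRα LBD, 1 nM final (stated for β), with fluorescein-SRC2-2 coactivator peptide (200 nM) and Tb-anti-GST antibody (2 nM). Agonists serially diluted, 1% DMSO final. 1 h incubation at rt in the dark; TR-FRET read as rise in fluorescein and drop in terbium emission.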

[2] = target: T2, human thyroid receptor alpha ligand-binding domain (LBD) (Homo sapiens, UniProt P10827); assay: TR-FRET thyroid receptor alpha coactivator assay (THR biochemical assay, Assay 1); conditions: for EC50: Table 4, THR-alpha, read-out: Activity category Assay 1 (EC50, THR-alpha agonist activity); for Emax: Table 5, THRα, read-out: Activity category Assay 1 THRα (Emax)
T2 construct: purchased Invitrogen
Method in brief: as §1

[3] = target: T3, THR beta (Homo sapiens, UniProt P10828); assay: HEK293T THR beta/RXR luciferase reporter assay (Assay 2); format: cell-based; conditions: for Emax: HEK-293T, Table 5, Assay 2, THRβ, read-out: Activity category Assay 2 THRβ (Emax); for EC50: THR-beta, HEK293T reporter assay, read-out: Activity category Assay 2 (EC50, THR-beta agonist)
T3 construct: expressed in transfected cells; host or cells: HEK293T (ATCC CRL-3216)
T3 sequence (P10828 1-461): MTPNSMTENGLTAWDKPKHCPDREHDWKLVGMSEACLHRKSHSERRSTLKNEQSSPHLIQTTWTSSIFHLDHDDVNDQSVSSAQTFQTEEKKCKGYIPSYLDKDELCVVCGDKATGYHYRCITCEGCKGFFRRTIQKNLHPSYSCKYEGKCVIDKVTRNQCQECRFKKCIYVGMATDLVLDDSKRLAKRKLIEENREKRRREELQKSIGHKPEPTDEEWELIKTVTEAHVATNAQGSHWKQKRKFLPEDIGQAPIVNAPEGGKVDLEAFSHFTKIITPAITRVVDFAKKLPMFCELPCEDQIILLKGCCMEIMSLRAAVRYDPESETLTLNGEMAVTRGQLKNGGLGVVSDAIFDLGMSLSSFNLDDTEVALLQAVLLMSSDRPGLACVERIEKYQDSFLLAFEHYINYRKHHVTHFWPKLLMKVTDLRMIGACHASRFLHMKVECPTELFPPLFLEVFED
T3 sequence (P19793 1-462 partner): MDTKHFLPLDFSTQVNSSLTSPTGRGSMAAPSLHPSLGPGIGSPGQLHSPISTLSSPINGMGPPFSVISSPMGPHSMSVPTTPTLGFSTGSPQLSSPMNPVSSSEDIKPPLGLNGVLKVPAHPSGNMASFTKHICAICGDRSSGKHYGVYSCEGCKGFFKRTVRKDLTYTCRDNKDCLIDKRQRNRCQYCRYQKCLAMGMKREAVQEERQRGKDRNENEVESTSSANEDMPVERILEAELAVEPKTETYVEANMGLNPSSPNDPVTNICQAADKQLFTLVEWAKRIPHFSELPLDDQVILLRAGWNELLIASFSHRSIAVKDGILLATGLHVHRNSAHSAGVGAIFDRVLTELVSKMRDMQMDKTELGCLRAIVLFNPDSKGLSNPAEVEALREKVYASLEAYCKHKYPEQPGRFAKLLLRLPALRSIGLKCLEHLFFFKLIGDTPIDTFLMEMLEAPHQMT
Method in brief: (§2)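 HEK293T cells transiently transfected with TRE-luciferase reporter, RXR, and THR alpha or THR beta plasmid; ten five-fold compound dilutions from DMSO added for 18-24 h. One-Glo luminescence read; percent agonism normalized between negative and positive controls.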

[4] = target: T4, THR alpha (Homo sapiens, UniProt P10827); assay: HEK293T THR alpha/RXR luciferase reporter assay (Assay 2); format: cell-based; conditions: Assay 2; for Emax: HEK-293T, Table 5, THRα, read-out: Activity category Assay 2 THRα (Emax); for EC50: Table 4, THR-alpha, read-out: Activity category Assay 2 (EC50, THR-alpha agonist activity)
T4 construct: expressed in transfected cells; host or cells: HEK293T (ATCC CRL-3216)
T4 sequence (P10827 1-410 isoform P10827-2): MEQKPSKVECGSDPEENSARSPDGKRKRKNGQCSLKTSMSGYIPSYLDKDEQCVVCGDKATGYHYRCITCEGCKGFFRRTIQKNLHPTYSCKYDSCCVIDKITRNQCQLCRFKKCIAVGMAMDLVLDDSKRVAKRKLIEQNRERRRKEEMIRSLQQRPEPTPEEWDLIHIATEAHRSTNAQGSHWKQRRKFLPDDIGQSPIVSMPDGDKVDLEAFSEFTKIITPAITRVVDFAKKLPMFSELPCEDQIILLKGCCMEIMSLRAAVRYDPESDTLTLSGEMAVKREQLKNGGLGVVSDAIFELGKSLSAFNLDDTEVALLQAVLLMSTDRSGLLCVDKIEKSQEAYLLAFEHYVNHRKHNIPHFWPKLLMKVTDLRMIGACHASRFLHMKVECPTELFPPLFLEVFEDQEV
T4 sequence (P19793 1-462 partner): T3 sequence (P19793 1-462 partner)
Method in brief: as §2

Row | SMILES | EC50 [1] [nM] | Emax [1] [%] | EC50 [2] [nM] | Emax [2] [%] | Emax [3] [%] | EC50 [3] [nM] | Emax [4] [%] | EC50 [4] [nM]
1 | O=c1cc(-c2ccc3c(c2)CCCC3)c(Oc2c(Cl)cc(-n3ncc(=O)[nH]c3=O)cc2Cl)n[nH]1 [Compound 91-A, 2-(3,5-dichloro-4-((6-oxo-4-(5,6,7,8-tetrahydronaphthalen-2-yl)-1,6-dihydropyridazin-3-yl)oxy)phenyl)-1,2,4-triazine-3,5(2H,4H)-dione] | < 50 | < 50 | 1000 to 25000 | < 50 | 50 to 75 | 50 to 250 | < 50 | > 10000
2 | Nc1nn(-c2cc(Cl)c(Oc3cc(C4(c5ccccc5)CC4)c(=O)[nH]n3)c(Cl)c2)c(=O)[nH]c1=O [Compound 107] | < 50 | < 50 | 1000 to 25000 | < 50 | 50 to 75 | 50 to 250 | < 50 | 250 to 1000
3 | CCCCCc1n[nH]c2ccc(Cc3c(C)cc(-n4nc(C#N)c(=O)[nH]c4=O)cc3C)cc12 [Compound 32] | < 50 | > 75 | < 50 | 50 to 75 | > 75 | 50 to 250 | > 75 | 50 to 250
4 | Nc1nn(-c2cc(Cl)c(Oc3ccc4c(c3)C3(CCCCC3)C(=O)N4)c(Cl)c2)c(=O)[nH]c1=O [Compound 85] | < 50 | < 50 | < 50 | < 50 | > 75 | – | 50 to 75 | < 50
5 | Nc1nn(-c2cc(Cl)c(Oc3ccc4c(c3)C3(CC3)C(=O)N4)c(Cl)c2)c(=O)[nH]c1=O [Compound 143] | < 50 | 50 to 75 | < 50 | > 75 | > 75 | < 50 | > 75 | < 50
6 | CC(C)/C=C1\C(=O)Nc2ccc(Oc3c(Cl)cc(-n4nc(N)c(=O)[nH]c4=O)cc3Cl)cc21 [Compound 147, 6-amino-2-[3,5-dichloro-4-[(3Z)-3-(2-methylpropylidene)-2-oxo-indolin-5-yl]oxy-phenyl]-1,2,4-triazine-3,5-dione] | < 50 | 50 to 75 | < 50 | < 50 | > 75 | < 50 | > 75 | < 50
7 | Nc1nn(-c2cc(Cl)c(Oc3n[nH]c(=O)cc3-c3cc4ccccc4cn3)c(Cl)c2)c(=O)[nH]c1=O [Compound 134] | < 50 | < 50 | 250 to 1000 | < 50 | 50 to 75 | 250 to 1000 | < 50 | > 10000
8 | O=c1cnn(-c2cc(Cl)c(Oc3cc(-c4ccc5c(c4)CCCC5)c(=O)[nH]n3)c(Cl)c2)c(=O)[nH]1 [Compound 91, 2-(3,5-dichloro-4-((6-oxo-5-(5,6,7,8-tetrahydronaphthalen-2-yl)-1,6-dihydropyridazin-3-yl)oxy)phenyl)-1,2,4-triazine-3,5(2H,4H)-dione] | < 50 | < 50 | 1000 to 25000 | 50 to 75 | 50 to 75 | 50 to 250 | < 50 | > 10000
9 | Nc1nn(-c2cc(Cl)c(Oc3n[nH]c(=O)cc3-c3ccccc3)c(Cl)c2)c(=O)[nH]c1=O [Compound 63-A, 6-amino-2-(3,5-dichloro-4-((6-oxo-4-phenyl-1,6-dihydropyridazin-3-yl)oxy)phenyl)-1,2,4-triazine-3,5(2H,4H)-dione] | > 25000 | < 50 | > 25000 | < 50 | < 50 | > 10000 | < 50 | > 10000
10 | C=C(C)c1cc(Oc2c(Cl)cc(-n3nc(N)c(=O)[nH]c3=O)cc2Cl)n[nH]c1=O [Compound 60-A, 6-amino-2-(3,5-dichloro-4-[[6-oxo-5-(prop-1-en-2-yl)-1H-pyridazin-3-yl]oxy]phenyl)-4H-1,2,4-triazine-3,5-dione] | < 50 | < 50 | 50 to 250 | < 50 | 50 to 75 | 250 to 1000 | < 50 | 250 to 1000
